Data published in ChEMBL document CHEMBL4725322, “New 30-norlupane derivatives through chemical-microbial semi-synthesis of betulinic acid and their neuroprotective effect” (Bioorg Med Chem Lett, 2020).

Key:
PC-12 [1] = assay: Neuroprotective activity against CoCl2-induced neuronal injury in rat PC-12 cells assessed as cell viability at 30 uM relative to control; format: functional; conditions: read-out: Activity
PC-12 [2] = assay: Neuroprotective activity against CoCl2-induced neuronal injury in rat PC-12 cells assessed as increase in cell viability; format: functional, cell-based
[3] = Rattus norvegicus, PC-12, read-out: EC50

Row | SMILES | viability at 30 µM (PC-12 [1]) [%] | EC50 (PC-12 [2]; pc-12) | EC50 (PC-12 [2]; [3]) [nM]
1 | CC(=O)[C@@H]1CC[C@]2(C(=O)O)CC[C@]3(C)[C@H](C[C@@H](O)[C@@H]4[C@@]5(C)CCC(=O)C(C)(C)[C@@H]5C[C@H](O)[C@]43C)[C@@H]12 | 105 | Not Active | –
2 | CC(=O)[C@@H]1CC[C@]2(C(=O)O)CC[C@]3(C)[C@H](CC[C@@H]4[C@@]5(C)CC[C@H](O)[C@@](C)(CO)[C@@H]5C[C@H](O)[C@]43C)[C@@H]12 | 110 | Not Active | –
3 | CC(=O)[C@@H]1CC[C@]2(C(=O)O)CC[C@]3(C)[C@H](CC[C@@H]4[C@@]5(C)CC[C@H](O)C(C)(C)[C@@H]5C[C@H](O)[C@]43C)[C@@H]12 | 105 | Not Active | –
4 | CC(=O)[C@@H]1CC[C@]2(C(=O)O)CC[C@]3(C)[C@H](CC[C@@H]4[C@@]5(C)CCC(=O)C(C)(C)[C@@H]5C[C@H](O)[C@]43C)[C@@H]12 | 96 | Not Active | –
5 | CC(=O)[C@@H]1CC[C@]2(C(=O)O)C[C@H](O)[C@]3(C)[C@H](CC[C@@H]4[C@@]5(C)CC[C@H](O)C(C)(C)[C@@H]5C[C@H](O)[C@]43C)[C@@H]12 | 99.4 | Not Active | –
6 | CC(=O)[C@@H]1CC[C@]2(C(=O)O)CC[C@]3(C)[C@H](C[C@@H](O)[C@@H]4[C@@]5(C)CCC(=O)C(C)(C)[C@@H]5CC[C@]43C)[C@@H]12 | 102 | – | 10
7 | CC(=O)[C@@H]1CC[C@]2(C(=O)O)C[C@H](O)[C@]3(C)[C@H](CC[C@@H]4[C@@]5(C)CCC(=O)C(C)(C)[C@@H]5C[C@H](O)[C@]43C)[C@@H]12 | 104 | Not Active | –
8 | CC(=O)[C@@H]1CC[C@]2(C(=O)O)CC[C@]3(C)[C@H](CC[C@@H]4[C@@]5(C)CC[C@H](O)C(C)(C)[C@@H]5CC[C@]43C)[C@@H]12 [PLATANIC ACID] | 96.8 | – | 170
9 | OC[C@H]1O[C@@H](OCCc2ccc(O)cc2)[C@H](O)[C@@H](O)[C@@H]1O [SALIDROSIDE] | 99.2 | – | –
